17 molecules from ChEMBL document CHEMBL1138245, “Discovery of N1-(6-chloroimidazo[2,1-b][1,3]thiazole-5-sulfonyl)tryptamine as a potent, selective, and orally active 5-HT(6) receptor agonist” (J Med Chem, 2007) can be followed below.

Assay [1] addresses T1, 5-hydroxytryptamine receptor 6 (Homo sapiens, UniProt P50406). Kind of assay: Displacement of [3H]LSD from human 5HT6 receptor expressed in HeLa cells. The assay is classed as cell-based.
For assay [2], the target named is T1, 5-hydroxytryptamine receptor 6. As to the kind of experiment: Agonist activity at human 5HT6 receptor expressed in HeLa cells assessed as cAMP production. The assay is classed as functional, cell-based.
Assay [3] has the same target. As to the kind of experiment: Antagonist activity at human 5HT6 receptor expressed in HeLa cells assessed as cAMP production. The format is functional, cell-based.

T1 sequence (P50406 whole entry): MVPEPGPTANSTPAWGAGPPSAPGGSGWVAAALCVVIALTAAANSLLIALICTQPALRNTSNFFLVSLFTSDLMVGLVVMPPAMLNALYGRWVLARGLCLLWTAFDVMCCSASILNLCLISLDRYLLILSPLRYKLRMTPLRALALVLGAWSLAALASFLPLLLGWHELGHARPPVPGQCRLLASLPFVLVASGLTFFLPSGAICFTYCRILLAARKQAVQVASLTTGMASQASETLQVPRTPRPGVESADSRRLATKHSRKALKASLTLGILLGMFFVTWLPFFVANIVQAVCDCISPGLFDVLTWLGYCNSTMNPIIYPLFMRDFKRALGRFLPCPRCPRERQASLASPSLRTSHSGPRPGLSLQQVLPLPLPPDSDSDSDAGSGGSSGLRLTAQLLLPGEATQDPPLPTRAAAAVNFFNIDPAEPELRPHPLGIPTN

In the case of `NCCc1cn(S(=O)(=O)c2cccc(Cl)c2)c2ccccc12`, the Ki in assay [1] was determined as 0.006 µM. Also, in assay [2], the EC50 is 0.108 µM and the Emax amounted to 100%.
For `NCCc1cn(S(=O)(=O)c2ccc(Cl)cc2)c2ccccc12`, in that order: 0.01 µM, 0.174 µM and 93.5%.
In assay [1], `NCCc1cn(S(=O)(=O)c2ccccc2Br)c2ccccc12` showed a Ki of 0.011 µM. Further, in assay [2], the EC50 came to 0.148 µM and the Emax was 97.5%.
`COc1ccc(S(=O)(=O)n2cc(CCN)c3ccccc32)cc1` registered a Ki in assay [1] of 0.047 µM.
In assay [1], `NCCc1cn(S(=O)(=O)c2ccc(F)cc2)c2ccccc12` gave a Ki of 0.021 µM.
On the same count and under the same terms, the figure for `CN(C)CCn1cc(S(=O)(=O)c2cccc(F)c2)c2ccccc21` is 0.0103 µM.
The same measure, in the same setting: the figure for `NCCc1cn(S(=O)(=O)c2cc(Cl)c(Cl)s2)c2ccccc12` is 0.031 µM; for `NCCc1cn(S(=O)(=O)c2ccc(I)cc2)c2ccccc12` it is 0.014 µM.
As to `COc1ccc(S(=O)(=O)n2cc(CCN)c3ccccc32)cc1OC`, in assay [3], the half-inhibitory concentration (IC50) turned out to be 0.0175 µM and the Imax was 80.5%. For the same molecule, affinity in assay [1] was put at a Ki of 0.007 µM.
In assay [1], `NCCc1cn(S(=O)(=O)c2ccc(Cl)s2)c2ccccc12` displayed a Ki of 0.006 µM. In assay [2], the EC50 came out at 0.181 µM and the Emax is 100%.
On to `CN1C=C(S(=O)(=O)n2cc(CCN)c3ccccc32)SC1N` (configuration not stated), for which, in assay [3], the IC50 is 0.0096 µM and the Imax worked out at 83%. For the same molecule, the affinity in assay [1] corresponds to a Ki of 0.01 µM.
The molecule `NCCc1cn(S(=O)(=O)c2ccccc2I)c2ccccc12` gave a Ki in assay [1] of 0.016 µM.
`NCCc1cn(S(=O)(=O)c2ccccc2)c2ccccc12` gave a Ki in assay [1] of 0.01 µM. For the same molecule, in assay [2], the EC50 was 0.073 µM and the Emax is 92%.
As for `NCCc1cn(S(=O)(=O)c2ccc(Cl)c(Cl)c2)c2ccccc12`, affinity in assay [1] was put at a Ki of 0.03 µM.
Regarding `Cc1ccc(S(=O)(=O)n2cc(CCN)c3ccccc32)cc1`, affinity in assay [1] was put at a Ki of 0.008 µM. Moreover, in assay [2], the EC50 turned out to be 0.191 µM and the Emax was 87.5%.
The matching figures for `NCCc1cn(S(=O)(=O)c2ccc(Br)s2)c2ccccc12`: 0.007 µM, 0.054 µM and 72%.
For `NCCc1cn(S(=O)(=O)c2ccc(N)cc2)c2ccccc12`, in that order: 0.001 µM, 0.091 µM and 73%.
